Earlier results on 4 molecules are cited in patent US20210361700A1 (priority 2020, published 2021).

Entries after “also recorded” stand apart in the source; their conditions may differ. Read-outs that look alike come from different tables or passages of the source.

One data set has as its target 3CLpro of SARS-CoV (Severe acute respiratory syndrome coronavirus, UniProt P0C6X7).
Data set [1] concerns influenza, adenovirus, Ebola, and others. The following applies: high affinity, nonspecific binding to viral surface proteins.
Data set [2] deals with pro-inflammatory cytokines, such as TNF-α, IL-6 and IL-8. To be noted: acute viral respiratory infection.
Data set [3] deals with TLR4 and NF-κB protein levels, ROS, acute tissue injury. The following applies: models of lung injury.
Another data set has as its system influenza vaccine. The following applies: experimental models, including influenza vaccine.
Data set [4] relates to upper respiratory infection.
In data set [5] the test system is acute respiratory infections. To be noted: N=40; P=0.004; listed as quercetin.
For another data set, the target named is COVID-19 S-protein (Severe acute respiratory syndrome coronavirus 2, UniProt P0DTC2).
In the next data set the test system is SARS-CoV ACE2 receptor. The following applies: studies with SARS-CoV; listed as quercetin.
A further data set deals with 3CLpro of MERS (Middle East respiratory syndrome-related coronavirus, UniProt K9N7C7).
Chain of 3CLpro of MERS (K9N7C7 3248-3553 limits assumed): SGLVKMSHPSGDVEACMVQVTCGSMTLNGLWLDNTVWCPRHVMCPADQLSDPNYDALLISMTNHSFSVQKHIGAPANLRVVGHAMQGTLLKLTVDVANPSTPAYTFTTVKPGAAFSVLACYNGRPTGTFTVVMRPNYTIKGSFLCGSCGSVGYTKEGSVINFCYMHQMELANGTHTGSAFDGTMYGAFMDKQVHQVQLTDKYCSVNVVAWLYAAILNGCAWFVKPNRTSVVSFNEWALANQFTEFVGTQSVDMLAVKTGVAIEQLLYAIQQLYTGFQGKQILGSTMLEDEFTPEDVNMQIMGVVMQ
Data set [6] concerns the target Plpro protease of SARS-CoV (Severe acute respiratory syndrome coronavirus, UniProt P0C6X7).
Data set [7] deals with 3C-like protease (3CLpro) activity of COVID-19.
Data set [8] relates to influenza. The following applies: animal models of influenza.
The next data set deals with rhinovirus. To be noted: rhinovirus infection in mice (COPD).
The subject of data set [9] is respiratory syndrome virus-1 vaccine. The following applies: large mammal model.
Data set [10] deals with acute respiratory infections. The following applies: for colds: secondary analysis, older adults.
For the next data set, the system named is T cell function. To be noted: for T cell function in older adults: supplementation.
The test system of data set [11] is influenza.
Data set [12] relates to vascular endothelial function. The following applies: meta-analyses of randomized controlled trials.
Data set [13] has as its system hepatitis B and tetanus vaccines. To be noted: for antibody titer / antibody response to vaccines: in vivo.
Another data set deals with strep pneumonia. To be noted: old mice; by reducing neutrophil migration and inflammatory cytokines.
For data set [14], the system named is common cold (often caused by coronaviruses). The following applies: short-term zinc supplementation at onset of symptoms; 17 RCTs pooled; 95% CI 0.81 to 2.50; listed as zinc.
In data set [15] the test system is acute respiratory infections. To be noted: for lower respiratory infection: zinc supplementation, older adults.
Data set [16] concerns the target RNA-dependent RNA polymerase of SARS-CoV (Severe acute respiratory syndrome coronavirus, UniProt P0C6X7).
[17] abbreviates: subset of subjects 40+ years (N=325), secondary analysis.

In the case of `O=C(O[C@@H]1Cc2c(O)cc(O)cc2O[C@@H]1c1cc(O)c(O)c(O)c1)c1cc(O)c(O)c(O)c1` [EGCG, epigallocatechin gallate], in the data set on colds or influenza (95% CI=0.07-0.76), the “OR, clinically diagnosed influenza infection” value is given as 0.25. Besides, the “HR, days free from influenza infection” value in the data set with colds or influenza (95% CI=0.09-0.84) is 0.27. Also, in the data set with colds or influenza (in vivo), the “reduced clinically diagnosed influenza infection” value is listed as 75% and the “reduced days free from influenza infection” value is 73%. The “inhibition of 3CLpro of SARS-CoV” value on 3CLpro of SARS-CoV is “Inhibits the (3CL^pro) activity”. In addition, the “infectivity of a wide range of viruses” value in data set [1] is “Inhibits infectivity of a wide”. Also, in data set [2], the pro-inflammatory cytokines entry is “down-regulates; also recorded: Down-regulatcs pro-”. The “TLR4 and NF-κB protein levels, ROS, acute tissue injury” value in data set [3] is on record as “Suppresses inflammatory”. Besides, the “biomarkers of endothelial dysfunction such as ICAM-1 and VCAM-1” value with endothelial cells is listed as “lowers”. For the same molecule, in the data set with endothelial cells (endothelial cells), the endothelin-1 production result is reported as “reduces” and the “nitric oxide (NO) release” value was “induces”. In the data set on endothelial cells (through effects on the Nrf2/HO-1 pathway), the “excessive endothelial oxidative stress” value is on record as “reduces”. Further, the “immune response to vaccination” value in the data set with influenza vaccine is “potentiated”.
In the case of `O=c1c(O)c(-c2ccc(O)c(O)c2)oc2cc(O)cc(O)c12` [Quercetin, quercetin], the “effect on rates of upper respiratory infections” value in data set [4] (overall, N=1,002) is given as “no overall significant effect”. In data set [4] (setting [17]), the “reduced duration of upper respiratory infection (total sick days)” value is given as “(−31%) in a secondary analysis”; the “reduced severity of upper respiratory infection (symptom severity)” value is “severity (−36%) and total sick days”. Moreover, the “incidence of acute respiratory infections” value in data set [5] is given as “significantly reduced”. In addition, the “antagonist of S-protein binding to host ACE2 receptor, computer modeling” value at COVID-19 S-protein is listed as “other compounds as a top”. Also, the “antagonist of S-protein binding to host ACE2 receptor, computer modeling” value on COVID-19 S-protein (listed as quercetin) was “top potential antagonist”. Moreover, the “binding to ACE2 receptor / antagonism of S-protein binding” value in the data set on SARS-CoV ACE2 receptor is on record as “binds”. Further, at 3CLpro of SARS-CoV, the “inhibition of 3CLpro of SARS-CoV” value is “inhibits”. At 3CLpro of MERS, the “inhibition of 3CLpro of MERS” value was “inhibits”. For the same molecule, the “inhibition of Plpro protease of SARS-CoV” value in data set [6] is given as “inhibits”. Moreover, in data set [7], the “inhibition of 3CLpro activity of COVID-19” value is reported as “Inhibits the 3C-like protease”. Further, in the data set with influenza [8], the “superoxide radical formation, lung pathology, overall risk of infection induced by influenza” value is recorded as “Reduces superoxide”; the “viral replication and risk of acute infection” value is recorded as “inhibits”. Moreover, the “cytokine storm / inflammation and lung injury” value with rhinovirus is “inhibits cytokine storm and reduces lung injury”. In addition, the “effects in vitro on endothelial cell pathways” value in the data set with endothelial cells (in vitro) is listed as “several beneficial effects”. For the same molecule, the “response to respiratory syndrome virus-1 vaccine” value in [9] is recorded as “improves”.
With Vitamin E, in data set [10] (nursing home residents), the “risk of total acute respiratory infections” value is “reduced the risk”. In addition, in data set [10], the colds result is recorded as “Decreased colds in older adults”. Besides, the colds result in [10] (listed as vitamin E) is listed as “reduced the risk”. The pneumonia result in data set [10] (subset of nursing home residents with polymorphism) is “Decreased pneumonia in a subset”. In the data set with T cell function (naive T cells, but not memory T cells), the “cell-dividing and IL-producing capacities of naive T cells” value is recorded as “increased”. The “T cell function in older adults” value with T cell function was “increases”. Further, in the data set with influenza [11] (mouse, in vivo), the “survival in viral pneumonia” value was “increases survival” and the “viral load in viral lung infections” value is listed as “Reduces viral load in viral”. Moreover, the “excessive lung inflammatory responses / inflammatory cytokine production” value in the data set on influenza [11] (viral infection, influenza) is given as “dampens; also recorded: Reduces inflammatory”. In data set [12], the vascular endothelial function result is “improve”. For the same molecule, in [13], the “in vivo delayed-type hypersensitivity skin response” value was “improves” and the “antibody titer / antibody response to vaccines” value is reported as “increase; also recorded: improves”. Also, in the data set on strep pneumonia, the “survival from strep pneumonia infection” value was “Increases survival from”.
On to zinc, for which, in data set [14], the “reduced days of illness” value is -1.65 days. For the same molecule, the “acute respiratory infections in the elderly” value in [15] (double-blind, placebo controlled trial) is recorded as “reduced”. Also, the lower respiratory infection entry is “adults and reduces lower” in [15]; “reduces” in data set [15] (listed as zinc). Also, the “inhibition of RNA-dependent RNA polymerase” value in data set [16] was “Inhibits the RNA-dependent”. The “T cell function in older adults” value in the data set on T cell function is “Increases T cell function in older”; with T cell function (listed as zinc) it was “increases”. Further, in data set [13], the “antibody titer / antibody response to vaccines” value is recorded as “increase; also recorded: restores”. Moreover, in the data set with inflammation, the inflammation result is “Reduces inflammation”.
